Legend:
pertussis toxin = assay: Adacel (Tdap vaccine) immunogenicity in mice, anti-PT antibody in serum; type: in vivo; settings: for Antibody levels augmented compared to immunization with Adacel alone: adjuvant with Adacel
hemolysis = assay: Hemolytic assay; type: cell-based
Procedure: (§1) Natural and synthetic QS-21 (SQS-21 or SAPONEX®) and a variety of analogs were tested for hemolytic activity.

Stability at 37° C. = type: physicochemical; settings: for degradation: after two weeks at 37° C.
Procedure: as §1

[1] = cited from earlier work
[2] = Companion toxicity study, body mass three days after immunization
Procedure: as §1

[3] = Pilot pharmacology/toxicology study with Adacel, QS-21 and TiterQuil-1055; settings: for changes in blood chemistry or hematology results: SC days 1 and 15, bled day 22 (group 7 day 29); for weight loss (body weight): mice, 50 mcg TiterQuil-1055, 20 mcg QS-21; for liver histopathology (hepatocellular cytoplasmic vacuolization): sacrificed day 22, 33 tissues examined
[4] = Weight loss in Engerix-B / TiterQuil-1055 study; settings: mice
[5] = groups of 5 mice, 2 weeks after second SC immunization
[6] = groups of 5 mice, 50 mcg TiterQuil-1055, 20 mcg QS-21, Adacel 2.5 mcg pertussis toxin
[7] = 50 mcg TiterQuil-1055, 20 mcg QS-21, Adacel 2.5 mcg pertussis toxin

| Molecule | Antibody levels augmented compared to immunization with Adacel alone (pertussis toxin; [5]) | hemolytic activity (hemolysis) | degradation (Stability at 37° C.) | tolerated (maximum) dose in cancer patients ([1]; cancer patients, above this dose local and systemic side effects) | maximum dose for healthy patients ([1]; healthy patients) | highest practical tolerable dose ([1]; well (non-cancer) adult and child recipients) | body mass lost on average ([2]; 20 mcg QS-21) | changes in blood chemistry or hematology results [3, 6] | weight loss (body weight) [3] | liver histopathology (hepatocellular cytoplasmic vacuolization) [3, 7] | Antibody levels (pertussis toxin; 0.5 mcg dose of Adacel, alone or with TiterQuil-1055, groups of 5 mice, 2 weeks after second SC immunization) | Antibody levels 2 weeks later (pertussis toxin; TiterQuil-1055 with Adacel, 2 weeks after the 2-week post-second-immunization bleed) | stability relative to QS-21 (Stability at 37° C.) | weight loss ([4]; 30 mcg TiterQuil-1055 dose) | weight loss ([4]; 100 mcg TiterQuil-1055 dose) | weight loss ([4]; 300 mcg TiterQuil-1055 dose) | body mass gained on average ([2]; young mice) | weight loss ([3]; groups of 5 mice, SC days 1 and 15, weighed daily, 50 mcg TiterQuil-1055, 20 mcg QS-21, Adacel 2.5 mcg pertussis toxin) |
| --- | --- | --- | --- | --- | --- | --- | --- | --- | --- | --- | --- | --- | --- | --- | --- | --- | --- | --- |
| QS-21 [reference compound] | 10 fold | highly hemolytically active | 20% | 100 to 150 µg | ~50 µg | 25 to 50 µg | 8-10% | No changes | 8-9% | Mild vacuolar changes | – | – | – | – | – | – | – | – |
| CC1O[C@@H](OC2C(O)[C@@H](NC(=O)CCCCCCCCCCC(=O)O)C(CO)O[C@H]2OC(=O)[C@]23CCC(C)(C)CC2C2=CCC4C5(C)CC[C@H](O)C(C)(C=O)C5CC[C@]4(C)C2(C)CC3O)C(O)C(O)[C@H]1O[C@@H]1OC[C@@H](O)C(O)C1O (stereo partly drawn) [Compound I-4] | 70 fold | much lower or undetectable hemolytic activity | without detectable degradation | – | – | – | – | No changes | No weight loss | No changes at all | 52,344 | further increased | increased stability | No weight loss | 4% | 5% | 5% | no other mice |

From patent US12037355B2, “Triterpene saponin analogues” (priority 2015, dated 2024)
